Where two headings read alike, the source gives them in different places.
Assays:
[1] = Urine pharmacokinetics in healthy subjects (Ae, CLR, fe); format: in vivo, human; details: for CL renal: both sexes, human, urine, oral, read-out: renal clearance (CLR), geometric mean (converted)
Protocol: Urine for the analysis of study drug was also collected. Participants were asked to void at the end of each collection period to ensure complete collection of urine during each interval. The entire volume of urine voided during each interval was collected and recorded, and a small volume stored for analysis of study drug concentrations.
Various pharmacokinetic (PK) parameters were determined for each subject. (FIGS. 29-31). For example, amount of drug excreted unchanges in urine (Ae), renal clearance (CLR), and fraction excreted in urine (fe).

[2] = system: Prostate-Specific Antigen; experiment: Prostate-Specific Antigen (PSA) assessment in CRPC patients; format: in vivo, human; details: metastatic castration-resistant prostate cancer patient, 2,000 mg QD (Example 10)
Protocol: Patient cohorts 1 through 3 were administered with 150 mg QD to 600 mg QD of Compound 1. Patient cohorts 4 through 7 were administered with 1150 mg QD to 1500 mg BID of Compound 1. The same methods of assessment (e.g., CT, MRI, bone scan) and the same technique were used at baseline and throughout the study to ensure comparability. Scans were performed immediately following bolus contrast administration using a standard volume of contrast, an identical contrast agent, and preferably the same scanner. Where appropriate (i.e., part of standard of care and clinically indicated), fluorodeoxyglucose-positron emission tomography (FDG PET) data were also obtained. In addition, patients with Castration-resistant prostate cancer (CRPC) had Prostate-Specific Antigen (PSA) assessments within 7 days of imaging assessments.

Structure (SMILES): CNC(=O)c1ccc(NCC#Cc2cc3c(N[C@@H]4CCN(C)C[C@@H]4F)cccc3n2CC(F)(F)F)c(OC)c1 [Compound 1, 4-((3-(4-(((3S,4R)-3-fluoro-1-methylpiperidin-4-yl)amino)-1-(2,2,2-trifluoroethyl)-1H-indol-2-yl)prop-2-yn-1-yl)amino)-3-methoxy-N-methylbenzamide]
- total dose excreted in urine as unchanged Compound 1 ([1]; 1000 mg, fasted, 96-hour interval): 2.53%
- total dose excreted in urine as unchanged Compound 1 ([1]; 1000 mg, fed, 96-hour interval): 3.29%
- total dose excreted in urine as Compound 1 ([1]; 2000 mg, Caucasian/non-Asian, fasted, 96-hour interval): 1.90%
- total dose excreted in urine as Compound 1 ([1]; 2000 mg, Caucasian/non-Asian, fed, 96-hour interval): 3.66%
- total dose excreted in urine as unchanged Compound 1 ([1]; 2000 mg, Japanese, fasted, 96-hour interval): 2.28%
- dose excreted in urine as unchanged Compound 1 ([1]; 96-hour interval, fasted and fed, all participants): less than 4%
- CL renal ([1]; 1000 mg, fasted (Part 1)): 2.87 mL/min
- CL renal ([1]; 1000 mg, fed (Part 1)): 3.1 mL/min
- CL renal ([1]; 2000 mg, Caucasian/non-Asian, fasted): 2.53 mL/min
- CL renal ([1]; 2000 mg, Caucasian/non-Asian, fed): 2.73 mL/min
- CL renal ([1]; 2000 mg, Japanese, fasted): 2.33 mL/min
- PSA response (decrease) [2]: > 50%
